Key:
[1] = test system: HCV-RNA replication in ORL8 cells (HCV-O strain, Li23-derived); experiment: microbe, parasite or virus in culture; settings: for EC50: Hepatitis C virus, ORL8, 72 h; for SI (CC50/EC50) / suppression of the level of HCV-RNA replication: ORL8 cells; for suppression of the level of HCV-RNA replication: 1 μM
Text: Assay systems using OR6 cells (HCV-O strain), 1B-4R cells (HCV-1B-4 strain), and AH1R cells (HCV-AH1R strain) as HuH-7 cell-derived full-length HCV-RNA-replicating cells, and ORL8 cells (HCV-O strain), ORL11 cells (HCV-O strain), 1B-4RL cells (HCV-1B-4 strain), and KAH5RL cells (HCV-KAH5 strain) as Li23 cell-derived full-length HCV-RNA-replicating cells were used for the quantitative analysis of anti-HCV activity and evaluation of a cytotoxic effect in the present invention. The three cell lines, i.e., the 1B-4R cells, the 1B-4RL cells, and the KAH5RL cells have been disclosed in WO 2010/026965 A1. The AH1R cells may be produced with reference to Mori K et al., BBRC, 371:104-109, 2008 and WO 2010/026965 A1. In addition, all the HCV strains belong to genotype 1b.
As necessary, an increase or decrease in expression level of an HCV protein (core protein) was examined by a Western blot method.
In the measurement of the renilla luciferase activity and the measurement by the WST-1 method, experiments were performed in three wells independent of each other, and their means and standard deviation were calculated.
The anti-HCV activities of N-89 and N-251 were examined using ORL8 cells and the EC50 values were calculated. An experimental scale and schedule are the same as those in Example 1.
N-89 and N-251 were added so as to achieve concentrations of 5 μM, a 2-fold dilution series from 5 μM (2.5, 1.3, 0.63, 0.31, 0.16, and 0.08 μM), and 0. The luciferase activities were measured 72 hours after the culture.
The anti-HCV activity of artemisinin was examined using OR6 cells and ORL8 cells and the EC50 values were calculated. An experimental scale and schedule are the same as those in Example 1.
Artemisinin was added so as to achieve concentrations of 100 μM, a 2-fold dilution series from 100 μM (50, 25, 13, 6.3, 3.1, and 1.6 μM), and 0. The luciferase activities were measured 72 hours after the culture.

[2] = test system: renilla luciferase; experiment: Influence on renilla luciferase activity in lysate of ORL8 cells; format: biochemical; settings: ORL8 cell lysate, concentrations of up to 20 μM
Description: In the ORL8 cells, the anti-HCV activity is evaluated by measuring the activity of renilla luciferase as a product of an exogenous gene introduced so as to be linked to HCV RNA.
Thus, N-89 or N-251 was added (5 μL) to a lysate (10 μL) of the ORL8 cells (1×10^5 cells, medium for Li23 cell line) so as to achieve final concentrations of 0, 5, 10, and 20 μM, and 50 μL of a substrate were further added thereto. Then, the luciferase activity was measured.
An actual luciferase activity value (RL activity value) at 100% on the ordinate axis was 2.2×10^5 in the case of N-89 and 2.8×10^5 in the case of N-251.

[3] = test system: HCV-RNA replication in ORL8 cells; experiment: Effect of antioxidant vitamin E on anti-HCV activity in ORL8 cells (luciferase activity); format: cell-based, HCV genotype 1b; settings: for luciferase activity, compound in combination with vitamin E: compound 0.5 μM + vitamin E 10 μM; for luciferase activity, compound in combination with vitamin E / luciferase activity (HCV activity), compound alone: 72 hours; for luciferase activity (HCV activity), compound alone: compound 0.5 μM alone; for canceling of the anti-HCV activity by vitamin E: vitamin E 10 μM
Description: The effect of addition of vitamin E on the anti-HCV activity of N-89 was examined using ORL8 cells. An experimental scale and schedule are the same as those in Example 1.
N-89 and vitamin E were simultaneously added so that the concentrations of N-89 and vitamin E were set to 0.5 μM and 10 μM, respectively. The luciferase activity was measured 72 hours after the culture.
The effect of addition of vitamin E on the anti-HCV activity of N-251 was examined using ORL8 cells. An experimental scale and schedule are the same as those in Example 1.
N-251 and vitamin E were simultaneously added so that the concentrations of N-251 and vitamin E were set to 0.5 μM and 10 μM, respectively. The luciferase activity was measured 72 hours after the culture.
The effect of addition of vitamin E on the anti-HCV activity of artemisinin was examined using ORL8 cells. An experimental scale and schedule are the same as those in Example 1.
Artemisinin and vitamin E were simultaneously added so that the concentrations of artemisinin and vitamin E were set to 100 μM and 10 μM, respectively. The luciferase activity was measured 72 hours after the culture.

[4] = test system: HCV-RNA replication in ORL8 cells; experiment: Combination effect with existing anti-HCV agents in ORL8 cells (luciferase activity vs expected additive curve); format: cell-based, HCV genotype 1b; settings: for effect in combination with CsA: CsA 0.2, 0.3, 0.4 μM; for effect in combination with CsA / effect in combination with FLV / effect in combination with RBV: compound 0.1, 0.2, 0.4 μM; for effect in combination with FLV: FLV 0.3, 1.0, 3.0 μM; for effect in combination with RBV: RBV 12.5, 25, 50 μM
Description: The effect of N-89 in combination with RBV was examined using ORL8 cells.
The drugs RBV and N-89 were added so that the concentrations of RBV were set to 0, 12.5, 25, and 50 μM and the concentrations of N-89 were set to 0, 0.1, 0.2, and 0.4 μM at each concentration of RBV. The luciferase activity was measured 72 hours after the culture.
The upper left panel of FIG. 19 and the upper right panel of FIG. 19 show the logarithmic and linear plots expressed by % of the measurement results, respectively.
The effect of N-251 in combination with RBV was examined using ORL8 cells.
The effect of N-89 in combination with IFN-α and RBV was examined using ORL8 cells.
The drugs N-89, IFN-α, and RBV were added so that the concentrations of the two drugs IFN-α and RBV were fixed as follows: both of IFN-α and RBV at 0; IFN-α at 1 IU/mL and RBV at 6.25 μM; IFN-α at 4 IU/mL and RBV at 12.5 μM; and IFN-α at 16 IU/mL and RBV at 25 μM, and the concentrations of N-89 were set to 0, 0.1, 0.2, and 0.4 μM in the respective combinations of IFN-α and RBV. The luciferase activity was measured 72 hours after the culture.
The luciferase activity was measured 72 hours after the culture.
The effect of N-89 in combination with FLV was examined using ORL8 cells.
The drugs FLV and N-89 were added so that the concentrations of FLV were set to 0.3, 1.0, and 3.0 μM and the concentrations of N-89 were set to 0, 0.1, 0.2, and 0.4 μM at each concentration of FLV. The luciferase activity was measured 72 hours after the culture.
The effect of N-251 in combination with FLV was examined using ORL8 cells.
The drugs FLV and N-251 were added so that the concentrations of FLV were set to 0.3, 1.0, and 3.0 μM and the concentrations of N-251 were set to 0, 0.1, 0.2, and 0.4 μM at each concentration of FLV. The luciferase activity was measured 72 hours after the culture.

[5] = Cytotoxic effect summarized over cells derived from various HCV strains (WST-1); format: cell-based; settings: human; seven full-length HCV-RNA-replicating cell lines; read-out: CC50 values, range over all cells
Description: Assay systems using OR6 cells (HCV-O strain), 1B-4R cells (HCV-1B-4 strain), and AH1R cells (HCV-AH1R strain) as HuH-7 cell-derived full-length HCV-RNA-replicating cells, and ORL8 cells (HCV-O strain), ORL11 cells (HCV-O strain), 1B-4RL cells (HCV-1B-4 strain), and KAH5RL cells (HCV-KAH5 strain) as Li23 cell-derived full-length HCV-RNA-replicating cells were used for the quantitative analysis of anti-HCV activity and evaluation of a cytotoxic effect in the present invention. […] In addition, all the HCV strains belong to genotype 1b.

SMILES	EC50 [1]	SI (CC50/EC50) [1]	suppression of the level of HCV-RNA replication [1]	inhibition on the renilla luciferase activity [2]	luciferase activity, compound in combination with vitamin E [3]	luciferase activity (HCV activity), compound alone [3]	canceling of the anti-HCV activity by vitamin E [3]	effect in combination with CsA ([4]; 72 hours)	effect in combination with FLV ([4]; 72 hours)	gaps between actually measured values and values expected as an additive effect ([4]; IFN-α 1 IU/mL and RBV 6.25 μM, N-89 0.1-0.4 μM)	effect in combination with IFN-α and RBV ([4]; IFN-α 4 IU/mL + RBV 12.5 μM and IFN-α 16 IU/mL + RBV 25 μM, N-89 0.1-0.4 μM, 72 hours)	effect in combination with RBV ([4]; 72 hours)	CC50 [5]
C1CCCCCC2(CCCCC1)OOCCCOO2 [N-89, 1,2,6,7-tetraoxaspiro[7,11]nonadecane]	89 nM	26	99%	did not show any inhibition	245%	27%	completely canceled	synergistic effect	synergistic effect	little gaps	synergistic effect	synergistic effect	500 to 9300 nM
OCCCCCCC1COOC2(CCCCCCCCCCC2)OOC1 [N-251, 6-(1,2,6,7-tetraoxaspiro[7,11]nonadec-4-yl)]	100 nM	13	99%	did not show any inhibition	215%	33%	completely canceled	synergistic effect	synergistic effect			synergistic effect	490 to 3800 nM

Reference: US9289411B2, “Anti-HCV agent” (NATIONAL UNIVERSITY CORPORATION OKAYAMA UNIVERSITY, priority 2011, dated 2016)
